According to US9428819B1, “Method for synthesizing noble metal nanoparticles using dead cancer cells” (KING SAUD UNIVERSITY, priority 2016, dated 2016):

What was measured:
Assay in all cases: Antimicrobial activity, diffusion Agar technique
Assay type in all cases: cell-based
Details in all cases: beyond the initial well diameter of 6 mm
[1] = system: Escherichia coli (RCMB 010054)
Protocol: (§1) The noble metal nanoparticles prepared by the present methods can be formulated into a composition effective as an antifungal and as an antibacterial agent (Gram positive and gram negative). […] The fungal and bacterial inhibition trial was conducted using the diffusion Agar technique. The data are expressed in the form of (M±S.D.): mean±standard deviation; wherein M represents the diameter of the inhibition zone, measured in millimeters (mm) beyond the initial well diameter of 6 mm.

[2] = system: Bacillis subtilis (RCMB 010068)
Protocol: as §1

[3] = system: Streptococcus pneumoniae (RCMB 010011)
Protocol: as §1

[4] = system: Aspergillus fumigatus (RCMB 02567)
Protocol: as §1

Q: Which “diameter of the inhibition zone (mean ± S.D.)” value (“diameter of the inhibition zone” below) [1] does the source give for Gentamicin here?
A: Its value is 20.3 ± 0.58 mm.

Q: `CC1(C)S[C@@H]2[C@H](NC(=O)[C@H](N)c3ccccc3)C(=O)N2[C@H]1C(=O)O` [Ampicillin] was tested. Which “diameter of the inhibition zone” value [2] did it give?
A: The value was 31.3 ± 1.5 mm.

Q: What about the “diameter of the inhibition zone” value [3] of the same molecule?
A: The value was 21.0 ± 1.0 mm.

Q: For `C[C@@H]1[C@H](O)[C@@H](C)/C=C/C=C/C=C/C=C/C=C/C=C/C=C/[C@H](O[C@@H]2O[C@H](C)[C@@H](O)[C@H](N)[C@@H]2O)C[C@@H]2O[C@](O)(C[C@@H](O)C[C@@H](O)[C@H](O)CC[C@@H](O)C[C@@H](O)CC(=O)O[C@H]1C)C[C@H](O)[C@H]2C(=O)O` [Amphotericin B], which “diameter of the inhibition zone” value [4] is on record?
A: The value was 21.7 ± 1.5 mm.
